# Measured values from ChEMBL document CHEMBL3507680, “University of Dundee, Gates Library screen for HepG2 cell viability”.
# Assay: Human HepG2 cell viability assay in 384 well format
# Assay type: toxicity, cell-based
# Parameters: dose 125 nL, time 70.5 hour; concentration not given beside the values
# Conditions: HepG2 cells, read-out: Inhibition
row,SMILES,cytotoxicity at 70.5 h [%]
1,COCC(=O)NC(C)Cc1cccc(Br)c1 (configuration not stated),33.7
2,O=C(NCc1ccccc1-n1cccn1)N1CCC(N2CCCC2)C1 (configuration not stated),-6.47
3,CC[C@@H](C)[C@@H](N)C(=O)Nc1cccc(-c2cnc(NCCO)nc2)c1,-7.48
4,c1cc(-c2nnn3c2COC(CNCC2CCOCC2)C3)ccn1 (configuration not stated),32.3
5,COc1cc(F)ccc1NC(=O)NCCNC(=O)OC(C)(C)C,-14
6,Cc1c(Cc2ccccc2)c(O)nc2nc(N3CCOCC3)nn12,-8.68
7,CS(=O)(=O)NC1CCc2[nH]c(=O)ccc2C1 (configuration not stated),-4.24
8,Cc1c(CN2CCCC(C(=O)CCc3ccccc3)C2)cc(C#N)n1C (configuration not stated),12
9,Clc1snnc1CN1CCCCC1Cn1cncn1 (configuration not stated),11.8
10,Cc1cnc(N2CCC3(CC2)C(c2ccccc2)CC(=O)N3C)nc1 (configuration not stated),-10.2
11,CCN(CC(=O)NC(C)C)S(=O)(=O)N1CCCC(C)C1 (configuration not stated),-1.39
12,COCCOCCC(=O)Nc1c(-c2ccc(F)cc2)ncn1C,17
13,CC(NC(=O)Nc1nnc(-c2ccccn2)s1)C(=O)OC(C)(C)C (configuration not stated),-11.7
14,CCc1nc2c(s1)C(N(C)C(=O)c1csnn1)CCC2 (configuration not stated),-5.63
15,O=C(N1CCCO1)[C@@]12CCO[C@@H]1CCN(Cc1ccccc1)C2,-5
16,CC(NC(=O)NCCC1=CCCCC1)c1nncn1C (configuration not stated),35.8
17,CNC(=O)COc1ccc(-c2ccccc2)nc1,-7.98
18,CC(C)CN(Cc1cnn(C)c1)C(=O)C1COc2ccccc2C1 (configuration not stated),1.15
19,O=C(Cc1cccc(F)c1)N1CCCCC1c1ccn2ccnc2n1 (configuration not stated),29.6
20,c1ccc(-c2nc(CN3CCCC(Cn4cncn4)C3)no2)cc1 (configuration not stated),2.09
21,CCc1ccc(CN2CCC3(CCCN(C(=O)N(C)C)C3)C2)o1 (configuration not stated),-10.4

row,SMILES,cytotoxicity at 70.5 h [%]
1,CCOC(C)C(=O)NS(=O)(=O)c1cccc2cc(C)cnc12 (configuration not stated),1.55
2,CCCS(=O)(=O)N1CCO[C@H]2[C@@H](Oc3cccnc3)CC[C@@H]21,-1.96
3,c1ccc(Oc2nccc3occc23)c(CN2CCCCC2)c1,6.4
4,O=C1N(Cc2ccc(F)c(F)c2)CCCC1(O)CNCc1ncc[nH]1 (configuration not stated),-1.39
5,CCC(CO)N(Cc1ccccn1)C(=O)c1ccc2c(c1)CCO2 (configuration not stated),15
6,CN1C(=O)[C@H]2CC[C@@H]1CN(C(=O)c1csc(Cc3ccccc3)n1)C2,-11.4
7,COCCN(CCOC)C(=O)c1ccc(Cn2nc(C)cc2C)cc1,7.43
8,Cc1cc(CN2C[C@@H]3COC[C@]3(CNC(=O)c3ccno3)C2)no1,-4.13
9,CN(Cc1cccs1)C(=O)c1ccc(N2CCOCC2)c(F)c1,12.4
10,CN(Cc1ccco1)C(=O)C1CCCc2ccccc21 (configuration not stated),-3.68
11,CC(C)Nc1ccc2nc(C3CCNCC3)nn2c1,9.18
12,Cc1nnc(N2C[C@H](OCc3ccncc3)[C@H]3OCCC[C@H]32)s1,-4.47
13,Cc1cnn(CC2CN(Cc3csc(C(C)C)n3)CCO2)c1 (configuration not stated),20.8
14,CCCc1nc(Nc2cccc(C(N)=O)c2)c2c(n1)c(C)nn2CC,-4.15
15,Cc1nc(NC(=O)N2CCCC(N(C)C)C2)nn1C (configuration not stated),31.8
16,CCS(=O)(=O)N[C@@H]1CN(Cc2cc(C)on2)C[C@@H]2CCCO[C@@H]21,-10.1
17,Cc1cnn(CC2CCCN2c2ccc(C#N)cn2)c1 (configuration not stated),6.54
18,CCc1nnc(Nc2cc(C)nc(C3CN(C(C)=O)CCO3)c2)s1 (configuration not stated),0.483
19,c1cc(NCc2ccncc2)nc(C2CCCNC2)c1 (configuration not stated),-1.2
20,CCCN1CCC(Cc2nn3c(C(C)C)nnc3s2)CC1,10.4
21,COC(=O)CC(C)(C)CC(=O)N1CCC(C(F)(F)F)CC1,1.71

row,SMILES,cytotoxicity at 70.5 h [%]
1,CC(=O)NCCNC(=O)c1nc(C2CC2)n(-c2ccccc2Cl)n1,-13.6
2,CC(C)C[C@H](NC(=O)N1CCC(Cc2ccccc2)CC1)C(=O)O,-5.66
3,Cc1cnn(CC2CCCN2Cc2nccn2C)c1 (configuration not stated),13.6
4,COCC(=O)NC(CC(C)C)c1nc2cccnc2n1C (configuration not stated),20.7
5,CNS(=O)(=O)CC(=O)N1CC2(CCCC2)c2c(F)cccc21,0.789
6,COc1cc(C(=O)N2CCCS2(=O)=O)cc(Cl)c1OC,-9.28
7,Cc1ccc(C(=O)NS(=O)(=O)c2ccccc2Br)c(=O)[nH]1,-7.74
8,OCC1(O)CCCN(Cc2nnc(-c3ccccc3)o2)CC1 (configuration not stated),-7.78
9,CNS(=O)(=O)c1ccc(C(=O)NCCNc2ncccn2)cc1,-12.3
10,O=C(Cn1ccc2c(Cl)cccc21)N1CCCC1,-1.08
11,CN(C)C(=O)CN1CCN(Cc2coc(-c3cccc(F)c3)n2)CC1,-11.2
12,O=C(Nc1ccc(-n2cncn2)nc1)N(CC1CCOC1)C1CC1 (configuration not stated),-1.97
13,Cc1nn(C)cc1-c1cncn1CCc1ccc2c(c1)OCCO2,-9.48
14,O=C(c1cccc(F)c1)N1CCCC1c1ncc2c(n1)CCNC2 (configuration not stated),-4.38
15,COc1ccc(C(=O)Nc2c(C(=O)N(C)C)nn(C)c2C)cc1,-6.56
16,CCC1(C)Cc2ccccc2-c2nc(NCCO)nc(O)c21 (configuration not stated),-26.4
17,Cn1cnc(S(=O)(=O)N2CCCc3cc(F)cc(F)c32)c1Cl,10.5
18,Cn1nnc2c(N3CC(C(=O)NCc4cccs4)C3)ncnc21,-1.73
19,CC(=O)N1CC2(CCN(Cc3ccc(Cl)cc3)C2)Cc2ccccc21 (configuration not stated),5.14
20,O=C(O)c1cccc(CN2CCCC(Cc3ccn[nH]3)C2)c1 (configuration not stated),-10.2
21,CNc1nc(C)cc(NC2CCCN(C3Cc4ccccc4C3)C2)n1 (configuration not stated),14.9

row,SMILES,cytotoxicity at 70.5 h [%]
1,COCCN(Cc1ccccc1)Cc1csc(-c2ncccn2)n1,-4.86
2,Cc1cc(C)c(C(=O)NC(c2nnc3n2CCNCC3)C(C)C)c(C)c1 (configuration not stated),-5.04
3,Cn1nc2c(cc1=O)CN(Cc1nc(-c3ccsc3)no1)CC2,-19.7
4,CC(=O)NC1CCN(C(=O)c2cnc(COc3ccccc3)nc2O)C1 (configuration not stated),-4.02
5,CC1(C)CN(C(=O)c2ccc3nncn3c2)CCS1,-5.72
6,O=C(NC1(c2cccc(F)c2)CCOCC1)c1ccoc1,-6.8
7,CC(Sc1nc(N)cc(N)n1)c1nc(C(C)(C)C)no1 (configuration not stated),-2.01
8,Cc1nn(C)c2c(=O)n(CC(=O)NC3CCCCC3)ccc12,-1.28
9,Cc1cc(C(=O)N2CCOC[C@H](Oc3cnccn3)C2)c(C(F)(F)F)o1,2.77
10,Cc1csc(NC(=O)CN2CCC(c3ccnn3CCO)CC2)n1,33.6
11,CCn1c(CN2CCCN(C(=O)OC)CC2)nc2c(F)cccc21,18.8
12,COc1ccccc1C(=O)N(C)Cc1ncc(C)c(OC)c1C,-6.37
13,COc1cc(C)c(S(=O)(=O)CC(=O)N(C)C(C)C)cc1OC,-5.84
14,CC(C)N1CCN(C)C2(CCN(C(=O)c3ccnnc3)CC2)C1=O,-4.95
15,COCCN1C[C@@H]2CN(Cc3ccc(C)s3)CCC[C@]2(C(=O)O)C1,11.4
16,CCCc1nc(C(=O)N2CCn3nc(C(=O)OC)cc3C2)cs1,16.6
17,Cc1ncnc(NCc2cc3n(n2)CCCN(S(C)(=O)=O)C3)c1C,-12.3
18,COc1ccc(-n2nc(C(C)C)nc2Cn2cncn2)cc1,-8.35
19,O=C1C(NCc2nnc3n2CCCC3)CCN1CC(F)(F)F (configuration not stated),20.6
